In the assay the test system is BMP-1. The assay can be described thus: BMP-1 gene expression (qPCR, normalized over 18S) in human dermal fibroblasts. It counts as cell-based. As to the method:
An examination of gene expression of BMP-1 was conducted using a number of proteasome inhibitors including, proteasome inhibitor-1, curcumin, MG-132 and bortezomib. Human neonatal dermal fibroblasts (AllCells, Catalog No. HN006001) were maintained in Dulbecco's modified Eagle's medium (DMEM) supplemented with 10% fetal bovine serum. Early passage cells were plated at 2×10^4 cells/cm^2 and grown in humidified 5% CO2 at 37° C. for 24 hours. Spent media was replaced the following day with assay media including Proteasome inhibitor-1 was added in DMEM at 1 μM and 0.1 μM. Untreated cells were used as the control group. For the human osteogenesis PCR array, the experimental group was treated only at 1 μM. In addition, in separate trials, spent media was replace by assay media of curcumin added in DMEM at 10 μM and 100 μM, MG-132 in DMEM at 0.1 μM and 1 μM, and bortezomib in DMEM at 0.1 μm and 1 μM.
Phenol-chloroform extraction was performed to isolate the total RNA for real time polymerase chain reaction array. More specifically, the total RNA was prepared using TRI REAGENT (Ambion, product number 9738), wherein the total RNA was obtained from the human neonatal dermal fibroblasts. Note that isolation was performed as per the instructions provided with the TRI REAGENT. The RNA was used for subsequent quantitative polymerase chain reaction (qPRC) gene expression of BMP1 measured using hydrolysis probes (TAQMAN probes available from Applied Biosystems) as described further below.
Concentration and integrity of the obtained total RNA was assessed by absorbance in a spectrophotometer at 260 nm and 280 nm and by electrophoresis in 1% agarose with formaldehyde loading dye. For TAQMAN gene expression assays, cDNA was synthesized from 2 μg of total RNA using the High Capacity cDNA Reverse Transcription Kit (Applied Biosystems, product number 4368814), again following the protocol supplied with the kit. The resulting cDNA was diluted 1:10.
For TAQMAN gene expression, gene-specific fluorescent labeled TAQMAN primers for FAM-BMP1 (Applied Biosystems, product Hs0098677.g1) and TAQMAN reference VIC-18S ribosomal RNA (Applied Biosystems, product number 4310893E) were used to target the gene of interest. A cocktail of universal master mix (Applied Biosystems, product number 4369016) was prepared individually for both set of primers which contained Taq Polymerase, dNTPs, and buffer. Template cDNA's were added separately to respective individual wells in triplicate samples. PCR was performed on StepOne Plus Real Time System instrument (Applied Biosystems). The amplification program consisted of 1 cycle of 95° C. with 10 minute hold (hot start) followed by 50 cycles of 95° C. with 15 second annealing hold and 1 minute 60° C. specified acquisition hold.
For human osteogenisis PCR array, total RNA was prepared using silica matrix purification using RNEASY MINI KIT (Qiagen, product number 74101) according to the manufacturer's recommendations. cDNA was synthesized from 1 μg of purified DNA-free RNA accordingly to RT^2First Strand Kit (SABiosciences, C-03). The resulting cDNA was diluted 1:30 and amplified. The procedure for the PCR array using real-time PCR is based on the RT^2 Profiler PCR array system instructions for Human Osteogenesis (SABiosciences, product number PAHS-026C). A cocktail reaction mix was setup as recommended by the PCR manufacturer (SABiosceiences, product number PA-012). PCR was performed using the same temperature parameters as used with the StepOne Plus Real Time System instrument. The Ct value of endogenous reference gene (i.e. 18s) was used to control for input RNA and then used to normalize target gene (i.e. BMP-1) tested from the same cDNA sample (Δ Ct), and then calibrated to an internal reference sample (ΔΔCt). Change in gene expression was determined by the expression 2̂-(ΔΔCt). […]

[1] abbreviates: 0.1 μM inhibitor, FIG. 27, nontreated approximately 1.52 (MG132) / 1.50 (bortezomib), may not be statistically significant.
The mark [2] stands for this setting: 1 μM inhibitor, FIG. 27, nontreated approximately 1.52 (MG132) / 1.50 (bortezomib), may not be statistically significant.

The results in this text go back to patent US20110009332A1, “Therapeutic Treatment Of Wounds” (SOUTHWEST RESEARCH INSTITUTE, priority 2009, published 2011).

Where a SMILES comes first, the peptide text is derived from it. The star is where a group is joined. Cbz = O=C(OCc1ccccc1)*; OtBu = CC(C)(C)O*

Regarding `CC[C@H](C)[C@H](NC(=O)OCc1ccccc1)C(=O)N[C@@H](CCC(=O)OC(C)(C)C)C(=O)N[C@@H](C)C(=O)N[C@H](C=O)CC(C)C` [PS-1, Z-Ile-Glu(OBu^t)-Ala-Leu-H] (Cbz-IE(OtBu)AL-aldehyde), the “BMP-1/18S mRNA levels” value came to 0.436 a.u (0.1 μM PS-1, FIG. 25, nontreated approximately 1.26) and 0.480 a.u (1.0 μM PS-1, FIG. 25, nontreated approximately 1.26).

`COc1cc(/C=C/C(=O)CC(=O)/C=C/c2ccc(O)c(OC)c2)ccc1O` [curcumin]: the “BMP-1/18S mRNA levels” value reads like this: (10 μM curcumin, FIG. 26, nontreated approximately 1.26) 1.68 a.u; (100 μM curcumin, FIG. 26, nontreated approximately 1.26) 0.882 a.u.

`CC(C)C[C@H](NC(=O)[C@H](Cc1ccccc1)NC(=O)c1cnccn1)B(O)O` [bortezomib]: the “BMP-1/18S mRNA levels” value runs as follows: under setting [1], 1.27 a.u; under setting [2], 1.27 a.u.

As for `CC(C)C[C@@H](C=O)NC(=O)[C@H](CC(C)C)NC(=O)[C@H](CC(C)C)NC(=O)OCc1ccccc1` [MG132] (Cbz-Leu-Leu-Leu-aldehyde), the “BMP-1/18S mRNA levels” value runs as follows: under setting [1], 1.10 a.u; under setting [2], 1.09 a.u.
